Here are results for 26 compounds from ChEMBL document CHEMBL1153577, “2D- and 3D-QSAR studies on 54 anti-tumor Rubiaceae-type cyclopeptides” (Eur J Med Chem, 2009).

This assay relates to P388. Briefly: Cytotoxicity against mouse P388 cell. It counts as functional, cell-based. The conditions noted are these: for IC50: Mus musculus, P388.

As to `C/C=C/c1ccc(C[C@H]2C(=O)N[C@@H](C)C(=O)N(C)[C@H]3Cc4ccc(cc4)Oc4cc(ccc4OC)C[C@@H](C(=O)N[C@H](C)C(=O)N[C@@H](C)C(=O)N2C)N(C)C3=O)cc1`, 5.01 nM corresponded to half-maximal inhibition (IC50).
The same measure, in the same setting: next, `COC(=O)C[C@@H]1NC(=O)[C@@H](C)NC(=O)[C@@H]2Cc3ccc(OC)c(c3)Oc3ccc(cc3)C[C@@H](C(=O)N2C)N(C)C(=O)[C@H](C)NC(=S)[C@H](Cc2ccc(OC)cc2)N(C)C1=O`: 4.79 nM.
Compound `COc1ccc(C[C@H]2C(=O)N[C@@H](C)C(=O)N(C)[C@H]3Cc4ccc(c(O)c4)Oc4cc(ccc4O)C[C@@H](C(=O)N[C@H](C)C(=O)N[C@@H](C)C(=O)N2C)N(C)C3=O)cc1` showed an IC50 of 9120 nM.
`COc1ccc(C[C@H]2C(=O)N[C@@H](C)C(=O)N(C)[C@H]3Cc4ccc(cc4)Oc4cc(ccc4OC)C[C@@H](C(=O)N[C@H](C)C(=O)N4CCC[C@H]4C(=O)N2C)N(C)C3=O)cc1` had an IC50 of 100 nM.
In turn, `COc1ccc(C[C@H]2C(=S)N[C@@H](C)C(=O)N(C)[C@H]3Cc4ccc(cc4)Oc4cc(ccc4OC)C[C@@H](C(=O)N[C@H](C)C(=S)N[C@@H](C)C(=O)N2C)N(C)C3=O)cc1` had an IC50 of 5.5 nM.
Regarding `COc1ccc(C[C@H]2C(=O)N[C@@H](C)C(=O)N(C)[C@H]3Cc4ccc(c(O)c4)Oc4cc(ccc4OC)C[C@@H](C(=O)N[C@H](C)C(=O)N[C@@H](C)C(=O)N2C)N(C)C3=O)cc1O`, the 50% inhibitory concentration (IC50) was 15100 nM.
`CCCc1ccc(C[C@H]2C(=O)N[C@@H](C)C(=O)N(C)[C@H]3Cc4ccc(cc4)Oc4cc(ccc4OC)C[C@@H](C(=O)N[C@H](C)C(=O)N[C@@H](C)C(=O)N2C)N(C)C3=O)cc1` had a half-maximal inhibitory concentration (IC50) of 25.7 nM.
For the compound `CCc1ccc(C[C@H]2C(=O)N[C@@H](C)C(=O)N(C)[C@H]3Cc4ccc(cc4)Oc4cc(ccc4OC)C[C@@H](C(=O)N[C@H](C)C(=O)N[C@@H](C)C(=O)N2C)N(C)C3=O)cc1`, inhibition was half-maximal at 9.33 nM (IC50). This IC50 is about 2.8-fold lower than that of the compound before.
`COc1ccc(C[C@H]2C(=S)N[C@@H](C)C(=O)N(C)[C@H]3Cc4ccc(cc4)Oc4cc(ccc4O)C[C@@H](C(=O)N[C@H](C)C(=O)N[C@@H](C)C(=O)N2C)N(C)C3=O)cc1` showed an IC50 of 1.15 nM.
Take `COc1ccc(C[C@H]2C(=O)N[C@@H](C)C(=O)N(C)[C@H]3Cc4ccc(cc4)Oc4cc(ccc4OC)C[C@@H](C(=O)N[C@H](C)C(=O)N4CCCC[C@H]4C(=O)N2C)N(C)C3=O)cc1`: the half-maximal inhibitory concentration (IC50) was 97.7 nM.
On the same count and under the same terms, next, `COc1ccc(C[C@H]2C(=S)N[C@@H](C)C(=O)N(C)[C@H]3Cc4ccc(cc4)Oc4cc(ccc4OC)C[C@@H](C(=O)N[C@H](C)C(=O)N[C@@H](C)C(=O)N2C)N(C)C3=O)cc1`: 0.741 nM; `COc1ccc2cc1Oc1ccc(cc1)C[C@H]1C(=O)N(C)[C@@H](C2)C(=O)N[C@H](C)C(=O)N[C@@H](C)C(=O)N(C)[C@@H](Cc2ccccc2)C(=O)N[C@@H](C)C(=O)N1C`: 295 nM; `COc1ccc(C[C@H]2C(=S)N[C@@H](C)C(=O)N(C)[C@H]3Cc4ccc(cc4)Oc4cc(ccc4OC)C[C@@H](C(=S)N[C@H](C)C(=O)N[C@@H](C)C(=O)N2C)N(C)C3=O)cc1`: 2.14 nM.
The same measure, in the same setting: next, `COc1ccc(C[C@@H]2NC(=O)[C@H](C)NC(=O)[C@@H](C)NC(=O)[C@@H]3Cc4ccc(OC)c(c4)Oc4ccc(cc4)C[C@@H](C(=O)N3C)N(C)C(=O)[C@H](C)NC2=O)cc1`: 120 nM; `C[C@@H]1NC(=O)[C@@H](C)NC(=O)[C@@H]2Cc3cccc(c3)Oc3ccc(cc3)C[C@@H](C(=O)N2C)N(C)C(=O)[C@H](C)NC(=O)[C@H](Cc2ccccc2)N(C)C1=O`: 525 nM.
For the compound `COc1ccc2cc1Oc1ccc(cc1)C[C@H]1C(=O)N(C)[C@@H](C2)C(=O)N[C@H](C)C(=O)N[C@@H](C)C(=O)N(C)[C@@H](Cc2ccc(C)cc2)C(=O)N[C@@H](C)C(=O)N1C`, the IC50 was 24 nM.
Same read-out and setting: next, `COc1ccc(C[C@H]2C(=O)N[C@@H](C)C(=O)N(C)[C@H]3Cc4ccc(cc4)Oc4cc(ccc4OC)C[C@@H](C(=O)N[C@H](C)C(=O)N[C@@H](CCSC)C(=O)N2C)N(C)C3=O)cc1`: 20.4 nM.
Compound `COc1ccc(C[C@H]2C(=O)N[C@@H](C)C(=O)N(C)[C@H]3Cc4ccc(cc4)Oc4cc(ccc4OC)C[C@@H](C(=O)N[C@H](C)C(=O)N[C@@H](C)C(=O)N2C)N(C)C3=O)cc1O` gave an IC50 of 214 nM.
With `C=Cc1ccc(C[C@H]2C(=O)N[C@@H](C)C(=O)N(C)[C@H]3Cc4ccc(cc4)Oc4cc(ccc4OC)C[C@@H](C(=O)N[C@H](C)C(=O)N[C@@H](C)C(=O)N2C)N(C)C3=O)cc1`, half-maximal inhibition (IC50) was put at 17 nM. Against the preceding compound, the IC50 is about 13-fold lower.
Same read-out and setting: next, `C[C@@H]1NC(=O)[C@@H](C)NC(=O)[C@@H]2Cc3ccc(O)c(c3)Oc3ccc(cc3)C[C@@H](C(=O)N2C)N(C)C(=O)[C@H](C)NC(=O)[C@H](Cc2ccccc2)N(C)C1=O`: 42.7 nM.
As for `COc1ccc(C[C@H]2C(=O)N[C@@H](C)C(=O)N(C)[C@H]3Cc4ccc(cc4)Oc4cc(ccc4OC)C[C@@H](C(=O)N[C@H](C)C(=O)N4C(=O)CC[C@H]4C(=O)N2C)N(C)C3=O)cc1`, inhibition was half-maximal at 457 nM (IC50).
For `COc1ccc(C[C@H]2C(=O)N[C@@H](C)C(=O)N(C)[C@H]3Cc4ccc(cc4)Oc4cc(ccc4OC)C[C@@H](C(=S)N[C@H](C)C(=O)N[C@@H](C)C(=O)N2C)N(C)C3=O)cc1`, the half-maximal inhibitory concentration (IC50) is 3.31 nM.
Still for that read-out and setting: with `COc1ccc(C[C@H]2C(=S)N[C@@H](C)C(=O)N(C)[C@H]3Cc4ccc(cc4)Oc4cc(ccc4OC)C[C@@H](C(=O)N[C@H](C)C(=O)N[C@@H](C)C(=S)N2C)N(C)C3=O)cc1` the figure was 1.62 nM; with `COc1ccc(C[C@H]2C(=O)N[C@@H](C)C(=O)N(C)[C@H]3Cc4ccc(c(O)c4)Oc4cc(ccc4OC)C[C@@H](C(=O)N[C@H](C)C(=O)N[C@@H](C)C(=O)N2C)N(C)C3=O)cc1` (stereo in doubt; 39), 4790 nM.
`COc1ccc(C[C@H]2C(=O)N[C@@H](C)C(=O)N(C)[C@H]3Cc4ccc(c(O)c4)Oc4cc(ccc4OC)C[C@@H](C(=O)N[C@H](C)C(=O)N[C@@H](C)C(=O)N2C)N(C)C3=O)cc1` (stereo in doubt; 40): the pIC50 (p388) was 5.24.
As to `COc1ccc(C[C@H]2C(=O)N[C@@H](C)C(=O)N(C)[C@H]3Cc4ccc(cc4)Oc4cc(ccc4O)C[C@@H](C(=O)N[C@H](C)C(=O)N[C@@H](C)C(=O)N2C)N(C)C3=O)cc1` [DEOXYBOUVARDIN], it took 3.55 nM to reach half-maximal inhibition (IC50).

By IC50 is commonly meant the midpoint of a concentration-inhibition curve. A high value points to a need for much substance. One may read the pIC50 as the negative decadic logarithm of the IC50, by convention in mol/L. Low readings indicate a high IC50, high ones a low IC50.
